Reference: publication PMC7055873 (PLoS ONE, 2020)
Entries after “also recorded” stand apart in the source; their conditions may differ.

Target: H275Y mutant A(H1N1)pdm09 virus, neuraminidase (NA) (Influenza A virus, UniProt A0A0X9QTS2, H275Y)

SMILES | susceptibility interpretation | IC50 [nM]
CCOC(=O)C1=C[C@@H](OC(CC)CC)[C@H](NC(C)=O)[C@@H](N)C1 [Oseltamivir, oseltamivir] | highly reduced inhibition; also recorded: high reduced inhibition | 
CCC(CC)[C@H](NC(C)=O)[C@@H]1[C@H](O)[C@@H](C(=O)O)C[C@H]1N=C(N)N [Peramivir, peramivir] | highly reduced inhibition; also recorded: high reduced inhibition | 21.9
